From patent US4939168A, “Discodermolide compounds, compositions containing same and methods of preparation and use” (Harbor Branch Oceanographics Institution, Inc., priority 1989, dated 1990)
Values after ≈ are worked out from the molar mass of the structure shown.

Key:
Type in all cases: cell-based
[1] = system: human peripheral blood lymphocytes (PBL); experiment: human mixed lymphocyte reaction (MLR), 3H-thymidine incorporation; conditions: for CPM (counts per minute of incorporated 3H-thymidine): control 48064
Experimental: (§1) The pure compound discodermolide I, was tested for immunosuppressive effects on the MLR and LCV assays using murine splenocytes and in the human MLR and mitogen stimulation assays, using human peripheral blood lymphocytes (PBL). Cellular proliferation was determined using incorporation of ^3 H-thymidine.
^1 Counts per minute of incorporate ^3 Hthymidine

[2] = murine lymphocyte viability assay (LCV), 3H-thymidine incorporation; conditions: mouse, splenocytes, read-out: % LCV Control (percent of the control LCV response)
Experimental: as §1

murine splenocytes [3] = experiment: as above
Experimental: as §1

[4] = system: murine P388 leukemia cells; experiment: P388 cytotoxicity (antiproliferative effect, MTT); conditions: Mus musculus, 48-h exposure
Experimental: The crude ethanolic extract of the sponge and the pure compound I were tested for toxicity against murine P388 leukemia cells. P388 cells obtained from Dr. J. Mayo, National Cancer Institute, Bethesda, MD, were maintained in Roswell Park Memorial Institute (RPMI) medium 1640 supplemented with 10% horse serum. All cell lines were cultured in plastic tissue culture flasks and kept in an incubator at 37° C. in humidified air containing 5% CO2. Antibiotic-free stock cultures of P388 cells were subcultured to 10^5 cells/ml by dilution in fresh growth medium at 2 to 3 day intervals. The mean generation time of primary cultures was 14 to 17 hr.
To assess the antiproliferative effects of agents against P388 cells, 200 μl cultures (96-well tissue culture plates, Nunc, Denmark) were established at 1×10^5 cells/ml in drug-free medium or medium containing the crude extract at a final dilution of 1:500 or discodermolide at various concentrations. Solvent for all dilutions was methanol, which was removed from plates under vacuum. All experimental cultures were initiated in medium containing Gentamycin sulfate (50 μg/ml; Schering Corporation, Kenilworth, NJ). After 48-h exposures, P388 cells were enumerated using 3-[4,5-Dimethylthiazol-2-yl]-2,5-diphenyltetrazolium bromide (MTT) as described below (M. C. Alley, et al., Cancer Res. 48:589, 1988).
To quantitate the effects on cell proliferation, 75 μl of warm growth medium containing 5 mg/ml MTT was added to each well and cultures were returned to the incubator for 90 minutes. To spectrophotometrically quantitate formation of reduced formazan, plates were centrifuged (900×g, 5 minutes), culture fluids removed by aspiration, and 200 μl of acidified isopropanol (2 ml concentrated HCl/liter isopropanol) added per well. The absorbance of the resulting solutions were measured at 570 nm with a plate reader (MR700 Microplate Reader, Dynatech, Laboratories, Chantilly, Va.). […] A linear relationship between P388 cell number and formazan production was found over the range of cell densities observed in these experiments.

murine splenocytes [5] = experiment: murine two-way mixed lymphocyte reaction (MLR), 3H-thymidine incorporation
Experimental: as §1

[6] = viability of cells in the human mixed lymphocyte reaction, M.T.T. metabolism
Experimental: as §1
^2 % Viable cells as measured by M.T.T. metabolism

[7] = system: human peripheral blood lymphocytes (PBL); experiment: Con A mitogenesis of human lymphocytes (mitogen stimulation assay); conditions: for Con A (counts per minute of incorporated 3H-thymidine): Con A 10.0 μg/ml, control 262000
Experimental: as §1
^1 Counts per minute of incorporated ^3 Hthymidine. Conc. of Con

[8] = system: human peripheral blood lymphocytes (PBL); experiment: PHA mitogenesis of human lymphocytes (mitogen stimulation assay); conditions: for PHA (counts per minute of incorporated 3H-thymidine): PHA 10.0 μg/ml, control 412200
Experimental: as §1
^2 Counts per minute of incorporated ^3 Hthymidine. Conc. of PHA

[9] = viability of human PBL in the Con A and PHA stimulation assays; conditions: peripheral blood lymphocytes, 50 and 25 μg/ml
Experimental: as §1

[10] = 50 and 25 μg/ml, mitogen 10 μg/ml

C=C/C=C\C(C)C(OC(N)=O)C(C)C(O)C(C)C/C(C)=C\C(C)C(O)C(C)/C=C\C(O)CC1OC(=O)C(C)C(O)C1C (single isomer, unassigned) [Discodermolide, discodermolide]
CPM (counts per minute of incorporated 3H-thymidine) ([1]; 0.4 μg/ml): 64211 CPM | CPM (counts per minute of incorporated 3H-thymidine) ([1]; 0.8 μg/ml): 49509 CPM | CPM (counts per minute of incorporated 3H-thymidine) ([1]; 1.6 μg/ml): 26336 CPM | CPM (counts per minute of incorporated 3H-thymidine) ([1]; 3.1 μg/ml): 8532 CPM | CPM (counts per minute of incorporated 3H-thymidine) ([1]; 6.3 μg/ml): 4996 CPM | CPM (counts per minute of incorporated 3H-thymidine) ([1]; 12.5 μg/ml): 2091 CPM | CPM (counts per minute of incorporated 3H-thymidine) ([1]; 25 μg/ml): 1728 CPM | CPM (counts per minute of incorporated 3H-thymidine) ([1]; 50 μg/ml): 1932 CPM | immunosuppressive activity in the human MLR (in words) ([1]; 50, 25, 12.5, 6.3, 3.1 and 1.6 μg/ml): immunosuppressive | viability ([2]; 0.5 μg/ml): 151% | viability ([2]; 5 μg/ml): 68% | viability ([2]; 50 μg/ml): 26% | viability ([2]; 500 μg/ml): < 1% | toxicity in the murine assay (in words) (murine splenocytes [3]; 0.5 μg/ml): no associated toxicity | toxicity in the murine assay (in words) (murine splenocytes [3]; 500, 50 and 5 μg/ml): with associated toxicity | inhibition at 0.125 µg/mL ([4]; 0.125 μg/ml): 2% | inhibition at 0.25 µg/mL ([4]; 0.25 μg/ml): 12% | inhibition at 0.5 µg/mL ([4]; 0.5 μg/ml): 49% | inhibition at 1 µg/mL ([4]; 1.0 μg/ml): 75% | inhibition at 2.5 µg/mL ([4]; 2.5 μg/ml): 87% | inhibition at 5 µg/mL ([4]; 5 μg/ml): 88% | inhibition at 10 µg/mL ([4]; 10 μg/ml): 90% | inhibition at 20 µg/mL ([4]; 20 μg/ml): 92% | IC50 ([4]; read-out: IC50 (concentration resulting in 50% inhibition of proliferation)): 0.5 µg/mL (≈ 0.842 µM) | immunosuppressive activity in the murine MLR (in words) (murine splenocytes [5]; 0.5 μg/ml): immunosuppressive | immunosuppressive activity in the murine MLR (in words) (murine splenocytes [5]; 500, 50 and 5 μg/ml): exhibited immunosuppressive activity | activity at 0.5 µg/mL (murine splenocytes [5]; Mus musculus, Splenocyte, 0.5 μg/ml, read-out: % MLR Control (percent of the control MLR response)): 18% | activity at 5 µg/mL (murine splenocytes [5]; Mus musculus, Splenocyte, 5 μg/ml, read-out: % MLR Control (percent of the control MLR response)): 25% | activity at 50 µg/mL (murine splenocytes [5]; Mus musculus, Splenocyte, 50 μg/ml, read-out: % MLR Control (percent of the control MLR response)): < 1% | activity at 500 µg/mL (murine splenocytes [5]; Mus musculus, Splenocyte, 500 μg/ml, read-out: % MLR Control (percent of the control MLR response)): < 1% | viability ([6]; peripheral blood lymphocytes, 0.4 μg/ml, read-out: % Viability (% viable cells as measured by M.T.T. metabolism)): 115% | viability ([6]; peripheral blood lymphocytes, 1.6 μg/ml, read-out: % Viability (% viable cells as measured by M.T.T. metabolism)): 110% | viability ([6]; peripheral blood lymphocytes, 3.1 μg/ml, read-out: % Viability (% viable cells as measured by M.T.T. metabolism)): 94% | viability ([6]; peripheral blood lymphocytes, 6.3 μg/ml, read-out: % Viability (% viable cells as measured by M.T.T. metabolism)): 94% | viability ([6]; peripheral blood lymphocytes, 12.5 μg/ml, read-out: % Viability (% viable cells as measured by M.T.T. metabolism)): 94% | viability ([6]; peripheral blood lymphocytes, 25 μg/ml, read-out: % Viability (% viable cells as measured by M.T.T. metabolism)): 102% | viability ([6]; peripheral blood lymphocytes, 50 μg/ml, read-out: % Viability (% viable cells as measured by M.T.T. metabolism)): 204% | viability ([6]; peripheral blood lymphocytes, 50, 25, 12.5, 6.3, 3.1 and 1.6 μg/ml, read-out: viability in the human MLR): > 94% | Con A (counts per minute of incorporated 3H-thymidine) ([7]; 6.3 μg/ml): 299518 Counts per minute | Con A (counts per minute of incorporated 3H-thymidine) ([7]; 12.5 μg/ml): 213740 Counts per minute | Con A (counts per minute of incorporated 3H-thymidine) ([7]; 25 μg/ml): 11567 Counts per minute | Con A (counts per minute of incorporated 3H-thymidine) ([7]; 50 μg/ml): 10230 Counts per minute | suppression of Con A stimulation of human PBL (in words) [7, 10]: suppressed | PHA (counts per minute of incorporated 3H-thymidine) ([8]; 6.3 μg/ml): 441580 Counts per minute | PHA (counts per minute of incorporated 3H-thymidine) ([8]; 12.5 μg/ml): 391633 Counts per minute | PHA (counts per minute of incorporated 3H-thymidine) ([8]; 25 μg/ml): 14425 Counts per minute | PHA (counts per minute of incorporated 3H-thymidine) ([8]; 50 μg/ml): 16984 Counts per minute | suppression of PHA stimulation of human PBL (in words) [8, 10]: suppressed | viability [9]: > 91%
